Measurements as given in ChEMBL document CHEMBL3826908, “Bortezomib inhibits bacterial and fungal β-carbonic anhydrases” (Bioorg Med Chem, 2016).

Tests used:
[1] = Inhibition of Candida glabrata beta-carbonic anhydrase preincubated for 15 mins by stopped-flow CO2 hydration assay; design: species or system Nakaseomyces glabratus
[2] = Inhibition of Cryptococcus neoformans beta-carbonic anhydrase preincubated for 15 mins by stopped-flow CO2 hydration assay
[3] = Inhibition of Malassezia globosa beta-carbonic anhydrase preincubated for 15 mins by stopped-flow CO2 hydration assay
[4] = Inhibition of Mycobacterium tuberculosis beta-carbonic anhydrase Rv3588 preincubated for 15 mins by stopped-flow CO2 hydration assay
[5] = Inhibition of Drosophila melanogaster beta-carbonic anhydrase preincubated for 15 mins by stopped-flow CO2 hydration assay
[6] = Inhibition of Flaveria bidentis beta-carbonic anhydrase preincubated for 15 mins by stopped-flow CO2 hydration assay
[7] = Inhibition of Candida albicans beta-carbonic anhydrase preincubated for 15 mins by stopped-flow CO2 hydration assay
[8] = Inhibition of Mycobacterium tuberculosis beta-carbonic anhydrase Rv3273 preincubated for 15 mins by stopped-flow CO2 hydration assay
[9] = target: T1, Beta-carbonic anhydrase 1 (Mycobacterium tuberculosis, UniProt P9WPJ7); assay: Inhibition of Mycobacterium tuberculosis beta-carbonic anhydrase Rv1284 preincubated for 15 mins by stopped-flow CO2 hydration assay
T1 sequence (P9WPJ7 whole entry): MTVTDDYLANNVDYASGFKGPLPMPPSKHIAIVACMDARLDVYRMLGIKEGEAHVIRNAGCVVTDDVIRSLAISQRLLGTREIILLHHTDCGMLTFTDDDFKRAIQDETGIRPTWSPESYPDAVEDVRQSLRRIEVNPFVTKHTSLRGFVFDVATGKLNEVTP

[10] = target: Carbonic anhydrase 1 (Homo sapiens, UniProt P00915)
[11] = target: Carbonic anhydrase 2 (Homo sapiens, UniProt P00918)

Sequence of Carbonic anhydrase 1 (P00915 whole entry): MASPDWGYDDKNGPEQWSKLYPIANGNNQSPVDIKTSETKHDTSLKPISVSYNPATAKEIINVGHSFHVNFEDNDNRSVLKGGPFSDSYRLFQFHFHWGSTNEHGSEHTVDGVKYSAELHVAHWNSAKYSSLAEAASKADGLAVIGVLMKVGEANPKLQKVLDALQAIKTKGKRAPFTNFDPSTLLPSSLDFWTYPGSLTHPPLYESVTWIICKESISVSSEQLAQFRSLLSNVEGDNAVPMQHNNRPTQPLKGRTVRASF

In the case of `CC(=O)Nc1nnc(S(N)(=O)=O)s1` [ACETAZOLAMIDE], the Ki [1] is reported as 0.011 µM, the Ki [2] is reported as 0.01 µM and the Ki [3] is reported as 74 µM. The Ki [4] was 0.01 µM, the Ki [5] was 0.049 µM and the Ki [6] was […].

With `CC(C)C[C@H](NC(=O)[C@H](Cc1ccccc1)NC(=O)c1cnccn1)B(O)O` [BORTEZOMIB] the Ki [7] was 1.12 µM, the Ki [1] was 5.73 µM and the Ki [2] was 4.7 µM. The Ki [3] was 3.24 µM, the Ki [8] was 6.5 µM and the Ki [9] was 7.3 µM. The Ki [4] was 4.2 µM, the Ki [5] was 11.3 µM and the Ki [6] was 8.45 µM. The Ki [10] was 1.29 µM and the Ki [11] was 1.16 µM.

`OB(O)c1ccccc1` [PHENYLBORONIC ACID] gave a Ki [7] of over 100 µM, a Ki [1] of 100 µM and a Ki [2] of over 100 µM. For the same compound, the Ki [3] was 89 µM, the Ki [8] was 67 µM and the Ki [9] was 58 µM. For the same compound, the Ki [4] was 48 µM, the Ki [5] was over 100 µM and the Ki [6] was 8 µM. It also gave a Ki [10] of over 100 µM and a Ki [11] of over 100 µM.
